Measurements reported in US20150210741A1, “JAGARICIN DERIVATIVES AND THEIR USE AS FUNGICIDE OR ANTITUMOR AGENT” (Leibniz-Institut Für Naturstoff-Forschung Und …, priority 2012, published 2015).
Converted amounts (≈) assume the structure as drawn. Starred links: 1 amine or outer side, 2 acyl side, 3 side chain; linkers in the order of their positions; H or OH if unused. Positions of bridges follow the written chain, without caps; N, C: chain ends. Non-standard residues stand in square brackets, D forms with d. Residues, ends and D or L forms follow the SMILES beside them. *: point of attachment. Tetradecanoyl(3R-OH) = CCCCCCCCCCC[C@@H](O)CC(=O)*; X1 = C/C=C(/N[*:1])C(=O)[*:2]; Dhb = C/C=C(\N)C(=O)O

Key:
mushroom tissue = assay: Application of purified jagaricin on mushroom tissue; parameters: species or system Agaricus bisporus; details: purified jagaricin applied to mushroom tissue
Cytotoxic assay = format: cell-based; details: human, HeLa cells (human cervix carcinoma)
Description: (§1) 50 μL of different concentrated jagaricin solutions were each pipetted into a pierced hole (9 mm diameter) within an agar plate that was inoculated with the test strains C. albicans, A. fumigatus and A. terreus, respectively. After incubation at 24° C. over night the inhibition zone was measured. The antiproliferative and cytotoxic assay were performed as previously described (Abdou, R. et al., Phytochemistry, 2009. 71(1): p. 110-6).

A. fumigatus = assay: Agar diffusion antifungal bioactivity test; format: cell-based; details: Aspergillus fumigatus
Description: (§2) Janthinobacterium agaricidamnosum (DSM 9628) was retrieved from the German collection of microorganisms (DSM). The bacteria were cultured in nutrient media (605 DSM without NaCl; 1 g/L beef extract, 2 g/L yeast extract, 5 g/L peptone, 15 g/L agar). Plates and liquid cultures (shaken at 150 rpm in baffled flasks) were grown at 22° C. and 28° C., respectively. During screening plates and liquid cultures of modified nutrient agar (additional 4 g/L chitin, 100 g/L mushroom cubes), M9 (6 g/L Na2HPO4, 3 g/L KH2PO4, 0.5 g/L NaCl, 2 g/L NH4Cl, 4 g/L glucose, […], 2 mM MgSO4, 15 g/L agar), MS (20 g/L mannite, 20 g/L soy flour, 20 g/L agar) and modified VK (5 g/L glycine, 10 g/L yeast extract, 10 g/L glucose, 10 g/L corn steep, 10 g/L CaCO3, 15 g/L agar pH 6.7-7.0) media were used. For the production of jagaricin J. agaricidamnosum was grown in modified VK medium. The selection of positive J. agaricidamnosum mutants was carried out on nutrition agar supplemented with 50 μg/mL kanamycin. For the construction of pKG01, Escherichia coli Top 10 cells and E. coli ER2925 cells were used. E. coli was cultured in LB medium (10 g/L tryptone, 5 g/L yeast extract, 5 g/L NaCl, 1 g/L glucose) supplemented with 50 μg/mL kanamycin. Candida albicans, Aspergillus fumigatus and A. terreus were used for the bioactivity tests and they were cultivated on malt agar (C. albicans; 40 g/L malt extract, 4 g/L yeast extract, 15 g/L agar, pH 5.7-6.0) and potato glucose agar (A. fumigatus and A. terreus; 4 g/L potato starch infusion, 20 g/L dextrose, 15 g/L agar) plates, respectively.
as §1

C. albicans = assay: Agar diffusion antifungal bioactivity test; format: cell-based; details: Candida albicans
Description: as §2, §1

A. terreus = assay: Agar diffusion antifungal bioactivity test; format: cell-based; details: Aspergillus terreus
Description: as §2, §1

bacteria = assay: Antibacterial activity (data not shown); format: cell-based
[1] = test system: human umbilical vein endothelial cells HUVEC; assay: Antiproliferative assay; format: cell-based
Description: as §1

[2] = test system: human chronic myeloid leukemia cells K-562; assay: Antiproliferative assay; format: cell-based; details: K562, K-562, antiproliferative
Description: as §1

With `C/C=C1\NC(=O)[C@@H](Cc2ccc(O)cc2)NC(=O)[C@@H]([C@H](C)O)NC(=O)[C@@H](NC(=O)/C(=C\C)NC(=O)C[C@H](O)CCCCCCCCCCC)[C@@H](C)OC(=O)[C@H](Cc2c[nH]cn2)NC(=O)[C@H]([C@@H](C)O)NC(=O)CNC(=O)[C@@H](CCC(N)=O)NC1=O` [jagaricin] ({Tetradecanoyl(3R-OH)}-[X1]T[dT][dY][Dhb][dQ]GTH; ester 2-C) the “lesion on mushroom tissue” value (mushroom tissue) was “caused a superficial lesion on mushroom tissue”, the CC50 (Cytotoxic assay) was 3800 nM and the MIC (A. fumigatus) was 0.41 µM (≈ 0.484 µg/mL). The MIC (C. albicans) was 0.42 µM (≈ 0.496 µg/mL), the MIC (A. terreus) was 0.28 µM (≈ 0.331 µg/mL) and the antibacterial activity (bacteria) was “little or no antibacterial activity”. The GI50 [1] was 1000 nM and the GI50 [2] was 1000 nM.
